Results taken from patent US10085974B2, “Dosage and formulation” (Almirall, S.A., priority 2008, dated 2018).

How the values were obtained:
[1] = test system: Patients with moderate to severe stable COPD; test: Spirometric measurements (FEV1) in a 4-week randomized once-daily trial in COPD patients; assay type: in vivo, human; conditions: for Mean change from baseline in trough FEV1 on Day 29 (Mean Δ): COPD patients
Protocol: (§1) Methods: Patients with moderate to severe stable COPD were randomized to receive double-blind, once-daily treatment with aclidinium (25, 50, 100, 200, or 400 μg), placebo, or open-label tiotropium 18 μg for 4 weeks. Spirometric measurements were performed at 22-24 h after the first dose and then at weekly intervals, and from 0.5-6 h post-administration on Day 1 and at Week 4 (Day 29).

[2] = test system: Patients with moderate to severe stable COPD; test: Tolerability (ECG, laboratory parameters, adverse events) in the 4-week COPD trial; assay type: in vivo, human; conditions: aclidinium 25-400 μg once daily, 4 weeks
Protocol: as §1

| Structure (SMILES) | Mean change from baseline in trough FEV1 on Day 29 (Mean Δ) ([1]; tiotropium 18 μg once daily, open-label, 4 weeks, *p <0.05 vs placebo) | Mean change from baseline in trough FEV1 on Day 29 (Mean Δ) ([1]; aclidinium 25 μg once daily, double-blind, 4 weeks, inhaled) [mL] | Mean change from baseline in trough FEV1 on Day 29 (Mean Δ) ([1]; aclidinium 50 μg once daily, double-blind, 4 weeks) [mL] | Mean change from baseline in trough FEV1 on Day 29 (Mean Δ) ([1]; aclidinium 100 μg once daily, double-blind, 4 weeks) [mL] | Mean change from baseline in trough FEV1 on Day 29 (Mean Δ) ([1]; aclidinium 200 μg once daily, double-blind, 4 weeks, *p <0.05 vs placebo) | Mean change from baseline in trough FEV1 on Day 29 (Mean Δ) ([1]; aclidinium 400 μg once daily, double-blind, 4 weeks, *p <0.05 vs placebo) | Effect on trough FEV1 on Day 29 ([1]; aclidinium 25-400 μg once daily, 4 weeks) | Bronchodilatory effect compared with open-label tiotropium 18 μg ([1]; aclidinium 200 and 400 μg) | Bronchodilatory effect during the first 6 h post-dose on Day 29 ([1]; all doses, compared with Day 1) | Duration of bronchodilation ([1]; once-daily aclidinium) | Time to peak FEV1 ([1]; post-dose, aclidinium 100-400 μg) [h] | Effect on ECG, laboratory parameters or adverse events [2] | Tolerability [2] |
| --- | --- | --- | --- | --- | --- | --- | --- | --- | --- | --- | --- | --- | --- |
| C[N+]1(C)[C@@H]2C[C@@H](OC(=O)C(O)(c3cccs3)c3cccs3)C[C@H]1[C@@H]1O[C@@H]12 [Tiotropium, reference compound] | 161* ml |  |  |  |  |  |  |  |  |  |  |  |  |
| O=C(O[C@H]1C[N+]2(CCCOc3ccccc3)CCC1CC2)C(O)(c1cccs1)c1cccs1.[Br-] [Aclidinium, 3(R)-(2-hydroxy-2,2-dithien-2-ylacetoxy)-1-(3-phenoxypropyl)-1-azoniabicyclo[2.2.2]octane bromide] |  | 39 | 36 | 83 | 148* ml | 128* ml | dose-dependently increased | comparable bronchodilatory effects | comparable to that on Day 1 | sustained bronchodilation over 24 h | 3 | no dose-dependent effect | well tolerated |
